Counter-ions that a name gives are not always drawn.

As for `Clc1nc2c(c3c1nc(-c1ccccc1)n3CCC1CCNCC1)CCCC2` (as salt: trifluoroacetate) [Example 135], the melting point was 215 to 221 °C (dec.).
In the case of `Clc1nc2c(c3c1nc(-c1ccccc1)n3CCC1CCNCC1)CCC2` (as salt: trifluoroacetate) [Example 136], the melting point was 225 to 232 °C (dec.).
Consider `CNc1nc2ccccc2c2c1nc(-c1ccccc1)n2CCC1CCN(C(=O)OC(C)(C)C)CC1` (hydrate or solvate) [Example 95], for which the melting point lay in the range of 161 to 162 °C.
Consider `CCOC(=O)N1CCC(CCn2cnc3c(Oc4ccccc4)nc4ccccc4c32)CC1` [Example 198], for which the melting point is 132 to 133 °C.
For `Clc1nc2ccsc2c2c1nc(-c1ccccc1)n2CCC1CCNCC1` (as salt: trifluoroacetate) (hydrate or solvate) [Example 137], the melting point lay within 224 to 224.5 °C.
For `Cc1ccc(S(=O)(=O)N2CCC(CCn3cnc4c(Oc5ccccc5)nc5ccccc5c43)CC2)cc1` [Example 197], the melting point is 201.5 to 202 °C.
Take `CNC(=S)N1CCC(CCn2c(-c3ccccc3)nc3c(Cl)nc4ccccc4c32)CC1` [Example 201, 4-[2-(4-Chloro-2-phenyl-1H-imidazo[4,5-c]quinolin-1-yl)ethyl]-N-methyl-1-piperidinecarbothioamide]: the melting point is 215 to 220 °C (dec.).
Regarding `Clc1nc2ccccc2c2c1nc(-c1ccccc1)n2CC[C@@H]1CCCN1` (as salt: fumarate) (hydrate or solvate) [Example 134], the melting point was 261 to 272 °C (dec.).
For the molecule `CC(C)(C)OC(=O)N1CCC(CCn2c(-c3ccccc3)nc3c(Cl)nc4ccsc4c32)CC1` [Example 35], the melting point is 199 to 200 °C.
Regarding `CC(C)(C)OC(=O)N1CCC(CCn2c(-c3ccccc3)nc3c(Cl)nc4c(c32)CCCC4)CC1` [Example 33], the melting point is 215 to 218 °C (dec.).

As usually defined, the melting point is the temperature, or range, at which the solid turns liquid.

The values are drawn from patent publication US6518265B1, “1H-imidazopyridine derivatives” (Hokuriku Seiyaku Co., Ltd., priority 1998, dated 2003).
